Results on 15 compounds are retold here after patent publication US10301630B2, “Methods and compositions for unsilencing imprinted genes” (The University of North Carolina at Chapel Hill, priority 2010, dated 2019).

In this experiment the test system is paternal Ube3a-YFP allele. As to the kind of experiment: High-content imaging of paternal Ube3a-YFP unsilencing in primary cortical neurons. In kind it is cell-based, mouse. The following applies: 72 h; for EC50: unsilencing paternal Ube3a-YFP; for Potency EC20 / EC20 / Potency EC20 (nM): 1 nM to 30 μM; for EC20: read-out: Potency EC20; for unsilencing of paternal Ube3a-YFP in dose-response experiments: cultured Ube3a m+/pYFP neurons. On the procedure: In all screening assays, primary cortical neurons from Ube3a-YFP mice are isolated from embryonic day 15.5 animals, and the genotype of animals is determined to identify mice that encode the Ube3a-YFP transgene on the paternal allele. Freshly isolated cortical neurons are seeded into 384 well plates and cultured for 7 days. At day in vitro seven, screening is performed using multiple chemical libraries and compound concentration of 10 μM in 0.2% DMSO vehicle. After 72 h of drug exposure (run in quadruplicate wells), neurons are fixed with 4% para formaldehyde and processed for immunofluorescence using an anti-GFP-Alexa 488 conjugated antibody to enhance the signal of Ube3a-YFP in neurons. For image analyses, individual wells of immunofluorescence-processed plates are imaged fro DAPI and GFP fluorescence using the BD-Pathway 855 high-content imaging microscope. Ube3a-YFP fluorescence intensities in individual neurons are determined in drug-treated wells and normalized to 0.2% DMSO-treated (i.e., vehicle control) wells using custom written macros and algorithms using NIH Image J and Arrayscan Cell Profiler software programs. These image analyses enable masking of nuclei in individual neurons and determination of Ube3a-YFP fluorescence intensity in the nuclei of individual neurons.
For these studies, DIV 7 primary neurons encoding paternal Ube3a-YFP are dose treated with hit compounds across seven orders of magnitude in full and half log molar concentrations (3 pM to 30 μM). Ube3a-YFP fluorescence intensities in living neurons are determined again by high-content imaging microscopy after 72 h treatments. The dose response results are analyzed by least squares sigmoidal dose-response curve fitting models using Graphpad Prism 5.0 (Graphpad Software, Inc.). The calculated EC50 values (potencies) and Y value top plateau (estimated efficacies or Emax) enable comparative analyses of the relative potency and efficacy of the identified compounds.
Primary cortical neurons were isolated from E13.5-16.5 Ube3a-YFP mice. Screening was performed in quadruplicate at DIV7 using multiple chemical libraries and a compound concentration of 10 μM in 0.2% DMSO vehicle. After 72 h of drug exposure, neurons were fixed with 4% paraformaldehyde in PBS for 35 min, permeabilized with 0.3% Triton X-100 in PBS on ice for 30 min, and blocked by 5% goat serum with 0.1% Triton X-100 in PBS at room temperature for 1 hr. Cells were incubated with a rabbit polyclonal antibody to GFP (1:1000, Novus Biologicals, NB600-308) at room temperature for 1 hr and then incubated with Alexa Fluor 488 goat antibody to rabbit IgG (1:200, Invitrogen, A11008) and DAPI (1:10,000, Invitrogen, D-1306) at room temperature for 30 min. Individual wells of immunofluorescence-processed plates were imaged for DAPI or Alexa 488 fluorescence using the BD Pathway 855 high-content imaging microscope with a 488 excitation/515 long pass filter. Antibody-enhanced UBE3A-YFP fluorescence intensities were determined from individual neurons in drug-treated wells and normalized to neurons in wells treated with 0.2% DMSO (vehicle control). Analyses were performed with custom macros and algorithms using NIH Image J and Arrayscan Cell Profiler software programs (Thermo Scientific/Cellomics). These image analyses enabled masking of nuclei in individual neurons and determination of UBE3A-YFP fluorescence intensities in the nuclei of individual neurons (FIG. 16).
DIV7 primary neurons from Ube3a^m+/pYFP mice were dose-treated for 72 h with topoisomerase I and II inhibitors in ten point dose-responses in full and half log molar concentrations (1 nM to 30 μM). Neurons were fixed, processed for immunofluorescence, and UBE3A-YFP fluorescence intensities were again determined by high-content imaging microscopy.

Where [1] appears, read: Table 1, Ube3a-YFP fluorescence intensity above control cells (0.2% DMSO treated), cortical neurons.
The mark [2] stands for this setting: Table 1, cortical neurons, read-out: EC50.
Where [3] appears, read: Table 3, unsilencing the paternal allele of Ube3a-YFP in cultured neurons.
[4] abbreviates: Mus musculus, Cortical neurone, Table 1, Ube3a-YFP fluorescence intensity above control cells (0.2% DMSO treated), cortical neurons, read-out: Efficacy Emax (fold over control).
Setting [5] is: Mus musculus, Cortical neurone, Table 1, cortical neurons, read-out: EC50.
[6] abbreviates: Mus musculus, Neuron, Table 3, unsilencing the paternal allele of Ube3a-YFP in cultured neurons.
[7] abbreviates: Mus musculus, Neuron, Table 3, unsilencing the paternal allele of Ube3a-YFP in cultured neurons, read-out: Efficacy Emax (fold over vehicle).

Where two headings read alike, the source gives them in different places.

Take `CCc1c2c(nc3ccc(O)cc13)-c1cc3c(c(=O)n1C2)COC(=O)[C@]3(O)CC` [7-Ethyl-10-Hydroxy-CPT]: under setting [1], the “Efficacy Emax (fold over control)” value was 2.00 ± 0.09 fold over control. For the same compound, the EC50 under setting [2] turned out to be 33 ± 1.3 nM. Besides, under setting [3], the “Efficacy Emax (fold over vehicle)” value was 1.99 ± 0.06 fold over vehicle and the “Potency EC20” value is 11 ± 3.2 nM.
Consider `CCc1c2c(nc3ccccc13)-c1cc3c(c(=O)n1C2)COC(=O)[C@]3(O)CC` [7-Ethyl-CPT, 7-Ethyl-Camptothecin], for which the “Efficacy Emax (fold over control)” value under setting [1] came to 1.68 ± 0.05 fold over control. Moreover, the EC50 under setting [2] was 49 ± 1.3 nM. Under setting [3], the “Efficacy Emax (fold over vehicle)” value was 1.70 ± 0.04 fold over vehicle and the “Potency EC20” value amounted to 7.2 ± 2.3 nM.
Regarding `CC[C@@]1(O)C(=O)OCc2c1cc1n(c2=O)Cc2cc3cc(O)ccc3nc2-1` [10-Hydroxy-CPT], the “Efficacy Emax (fold over control)” value under setting [1] stood at 1.68 ± 0.06 fold over control. Under setting [2], the half-maximal effective concentration (EC50) came to 40 ± 1.4 nM. Besides, under setting [3], the “Efficacy Emax (fold over vehicle)” value was determined as 1.82 ± 0.08 fold over vehicle and the “Potency EC20” value was 14 ± 5.7 nM.
On to `COc1cc(NS(C)(=O)=O)ccc1Nc1c2ccccc2nc2ccccc12` [Amsacrine], for which the maximal fold induction under setting [4] came to 1.65 ± 0.05 and the maximal fold induction under setting [7] is 1.74 ± 0.06. The concentration for a half-maximal effect (EC50) under setting [5] was 28 ± 10 nM. Moreover, under setting [6], the concentration for an effect of 20% (EC20) was 27 ± 5.2 nM.
Taken in the same sequence, the figures for `CC[C@@]1(O)C(=O)OCc2c1cc1n(c2=O)Cc2c-1nc1ccccc1c2CCNC(C)C` [Belotecan (CKD602), Belotecan] were 1.85 ± 0.04, 1.88 ± 0.05, 18 ± 1.1 nM and 19 ± 4.4 nM.
The corresponding values for `CC[C@@]1(O)C(=O)OCc2c1cc1n(c2=O)Cc2cc3ccccc3nc2-1` [Camptothecin (CPT), Camptothecin] are 1.66 ± 0.06, 2.11 ± 0.05, 32 ± 1.3 nM and 21 ± 3.8 nM.
Consider `C[C@@H](CN1CC(=O)NC(=O)C1)N1CC(=O)NC(=O)C1` [Dexrazoxane (ICRF-187), Dexrazoxane], for which the “unsilencing of paternal Ube3a-YFP in dose-response experiments” value (shortened to “unsilencing of paternal Ube3a-YFP”) is given as “unsilenced the paternal Ube3a-YFP allele”. For the same compound, under setting [6], the EC20 is 20500 ± 1450 nM. Moreover, the maximal fold induction under setting [7] was determined as 1.82 ± 0.05.
Taken in the same sequence, the figures for `COc1cc([C@@H]2c3cc4c(cc3[C@@H](O[C@@H]3O[C@@H]5CO[C@@H](C)O[C@H]5[C@H](O)[C@H]3O)[C@H]3COC(=O)[C@H]23)OCO4)cc(OC)c1O` [Etoposide] were “unsilenced the paternal Ube3a-YFP allele”, 1600 ± 980 nM and 1.68 ± 0.04.
Regarding `CC[C@@]1(O)C(=O)NCc2c1cc1n(c2=O)Cc2cc3ccccc3nc2-1` [Lactam E ring-CPT (inactive), Lactam E ring-CPT], the “unsilencing of paternal Ube3a-YFP” value was “failed to unsilence the paternal Ube3a-YFP allele”. Under setting [3], the “Efficacy Emax (fold over vehicle)” value is “inactive” and the “Potency EC20 (nM)” value is “inactive”.
`COc1cc2c3c(n(CCCNCCO)c(=O)c2cc1OC)-c1cc2c(cc1C3=O)OCO2` [NSC706744]: the “Efficacy Emax (fold over control)” value under setting [1] is on record as 1.76 ± 0.03 fold over control. The EC50 under setting [2] is 6.2 ± 2 nM. Moreover, under setting [3], the “Efficacy Emax (fold over vehicle)” value came to 1.84 ± 0.07 fold over vehicle and the “Potency EC20” value is reported as 11 ± 3.2 nM.
With `COc1cc2c3c(n(CCCN4CCOCC4)c(=O)c2cc1OC)-c1cc2c(cc1C3=O)OCO2` [NSC724998], under setting [1], the “Efficacy Emax (fold over control)” value was 1.65 ± 0.03 fold over control. The EC50 under setting [2] is 12 ± 4 nM. Under setting [3], the “Efficacy Emax (fold over vehicle)” value came out at 1.69 ± 0.03 fold over vehicle and the “Potency EC20” value is listed as 14 ± 2.2 nM.
Taken in the same sequence, the figures for `COc1cc2c3c(n(CCCn4ccnc4)c(=O)c2cc1OC)-c1cc2c(cc1C3=O)OCO2` [NSC725776] were 1.82 ± 0.05 fold over control, 9.2 ± 2 nM, 1.76 ± 0.03 fold over vehicle and 10 ± 1.6 nM.
Regarding `CC[C@@]1(O)C(=O)OCc2c1cc1n(c2=O)Cc2cc3c([N+](=O)[O-])cccc3nc2-1` [Rubitecan (9-Nitro-CPT), Rubitecan], the maximal fold induction was 2.07 ± 0.08 under setting [4] and 2.09 ± 0.09 under setting [7]. The half-maximal effective concentration (EC50) under setting [5] amounted to 43 ± 9.1 nM. Moreover, under setting [6], the EC20 came out at 62 ± 18 nM.
The corresponding values for `CC[C@@]1(O)C(=O)OCc2c1cc1n(c2=O)Cc2c-1nc1ccc(O)cc1c2[Si](C)(C)C(C)(C)C` [Silatecan (DB67), Silatecan] are 1.71 ± 0.06, 1.65 ± 0.05, 2640 ± 95 nM and 2240 ± 171 nM.
In the case of ICRF-193, the “unsilencing of paternal Ube3a-YFP” value was “unsilenced the paternal Ube3a-YFP allele”. In addition, the EC50 (Table 1, cortical neurons) is 131 ± 13 nM. Moreover, the “Potency EC20 (nM)” value under setting [3] is on record as 205 ± 70^ nM.

Broadly, the EC50 is the concentration needed to bring the measured effect to its halfway point. Broadly, the EC20 is the concentration at which the effect reaches the 20% level.
